Measurements: PMC9374667 (Communications Biology, 2022)
Values joined by “and” are separate entries in the source; they are usually repeats but may differ in a detail not shown here. Equal entries are not always repeated.

Target: T1, IKKε (Mus musculus, UniProt Q9R0T8)
T1 sequence (Q9R0T8 1-717): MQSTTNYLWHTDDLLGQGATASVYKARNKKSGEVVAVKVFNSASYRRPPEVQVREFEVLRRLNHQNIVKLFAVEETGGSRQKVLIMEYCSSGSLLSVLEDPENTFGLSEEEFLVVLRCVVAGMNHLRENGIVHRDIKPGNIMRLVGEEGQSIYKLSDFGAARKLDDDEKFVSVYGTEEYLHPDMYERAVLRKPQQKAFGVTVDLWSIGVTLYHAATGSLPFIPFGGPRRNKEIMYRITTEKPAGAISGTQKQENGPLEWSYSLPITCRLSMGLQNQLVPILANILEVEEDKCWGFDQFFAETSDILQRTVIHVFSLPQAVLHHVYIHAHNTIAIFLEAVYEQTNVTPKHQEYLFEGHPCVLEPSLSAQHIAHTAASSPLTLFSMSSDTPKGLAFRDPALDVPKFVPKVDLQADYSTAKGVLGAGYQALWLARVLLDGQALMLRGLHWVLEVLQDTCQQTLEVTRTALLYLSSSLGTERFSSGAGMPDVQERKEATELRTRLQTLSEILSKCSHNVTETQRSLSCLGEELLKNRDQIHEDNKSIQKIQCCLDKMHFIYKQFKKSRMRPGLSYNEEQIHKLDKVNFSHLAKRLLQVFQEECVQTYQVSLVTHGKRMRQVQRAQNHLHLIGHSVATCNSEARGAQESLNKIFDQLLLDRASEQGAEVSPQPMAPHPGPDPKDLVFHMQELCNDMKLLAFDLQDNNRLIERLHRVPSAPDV
Assay: IKKε-knockdown 3T3-L1 adipocytes (siRNA; western blotting, cAMP, glycerol, ISO)
Format: cell-based, Murine
Parameters: endogenous in cells; host or cells: differentiated 3T3-L1 adipocytes
Conditions: for Glycerol (Figure 9l) / UCP1 (western blotting, Figure 9J) / cAMP (Figure 9k): 10μM BJ +
Method: Small interference RNA transfection (siRNA) was performed using 4 μM TBK1 siRNA (siTBK1) or 4 μM […]ε) or corresponding NC siRNA (siNC). The epididymal adipose tissue was dissected, the fresh adipose tissue was weighed and rapidly rinsed with PBS. The adipose tissue was cut and incubated with isoproterenol (10 μM) for 2 h, and homogenized in a cold cleavage buffer to prepare the adipose tissue homogenate. Then the homogenate was centrifuged at 12,000 × g at 4 °C for 15 min, and the supernatant was collected. […] Then the cells were lysed in a petri dish, scraped off, and centrifuged at 12,000 × g at 4 °C for 15 min before the supernatant was collected. […] And concentrations were further standardized according to protein concentration. The adipose tissue or 3T3-L1 adipocytes were homogenized by ultrasound in an ice-cold RIPA lysis buffer containing 1% PMSF and centrifuged at 12,000 × g at 4°C for 15 min to collect the supernatant. The BCA protein assay kit (Beyotime, Shanghai, China) was used to detect the total protein concentration. Proteins (20-30 μg) of the sample were separated by 10% SDS-PAGE gel and transferred onto polyvinylidene difluoride (PVDF) membranes. Then the PVDF membranes were blocked in 5% skim milk powder in TBS containing 1% Tween-20 (TBST) for 2 h at room temperature and washed with TBST for 3 times. […] After washing, the membranes were incubated with horseradish peroxidase-conjugated secondary antibodies (in 5% skim milk powder) for 1 h at room temperature. Finally, the membranes were treated with enhanced chemiluminescence agents (Tanon, Shanghai, China) and the signals were monitored using the Tanon 5200 multi chemiluminescent imaging system (Tanon, Shanghai, China).

Compound: CC(C)Cc1ccc(C(C)C(=O)[O-])cc1.COc1ccc2cc3[n+](cc2c1OC)CCc1cc2c(cc1-3)OCO2.O.O.O.O [BJ, berberine-ibuprofen]
- IKKϵ (western blotting, Figure 9h) (10μM BJ): 0.1875 and 0.2278 and 0.214
- UCP1 (western blotting, Figure 9i) (10μM BJ): 0.3644 and 0.4778 and 0.4436
- Expression of UCP1 (3T3-L1 adipocytes treated with BJ alone): significantly increased
- UCP1 expression (IKKε-knockdown 3T3-L1 adipocytes treated with BJ, vs IKKε-knockdown): not significantly altered
- cAMP accumulation, glycerol release, and UCP1 expression (IKKε-knockdown 3T3-L1 adipocytes, ISO stimulation, BJ vs IKKε-knockdown): did not significantly increase the above changes
- cAMP accumulation, glycerol release, and UCP1 expression (ISO-stimulated 3T3-L1 adipocytes, BJ treatment alone): significantly increased cAMP accumulation, glycerol release, and UCP1 expression
- Glycerol (Figure 9l) (siIKKϵ +, ISO +): 176.805 µmol/L and 182.076 µmol/L and 176.254 µmol/L
- UCP1 (western blotting, Figure 9J) (siIKKϵ +, ISO +): 0.785 and 0.7814 and 0.8472
- cAMP (Figure 9k) (siIKKϵ +, ISO +): 0.4194 pmol/mg protein and 0.4185 pmol/mg protein and 0.3432 pmol/mg protein and 0.371 pmol/mg protein and 0.3866 pmol/mg protein and 0.405 pmol/mg protein
- Glycerol (Figure 9l) (siIKKϵ +, ISO -): 89.0822 µmol/L and 96.3611 µmol/L and 91.9299 µmol/L
- UCP1 (western blotting, Figure 9J) (siIKKϵ +, ISO -): 0.6376 and 0.6905 and 0.6507
- cAMP (Figure 9k) (siIKKϵ +, ISO -): 0.2155 pmol/mg protein and 0.2223 pmol/mg protein and 0.1908 pmol/mg protein and 0.2097 pmol/mg protein and 0.2158 pmol/mg protein and 0.2252 pmol/mg protein
- Glycerol (Figure 9l) (siIKKϵ -, ISO +): 156.977 µmol/L and 167.166 µmol/L and 170.891 µmol/L
- UCP1 (western blotting, Figure 9J) (siIKKϵ -, ISO +): 0.6574 and 0.7704 and 0.6754
- cAMP (Figure 9k) (siIKKϵ -, ISO +): 0.362 pmol/mg protein and 0.3606 pmol/mg protein and 0.3205 pmol/mg protein and 0.3322 pmol/mg protein and 0.3416 pmol/mg protein and 0.3545 pmol/mg protein
- Glycerol (Figure 9l) (siIKKϵ -, ISO -): 81.5401 µmol/L and 78.1125 µmol/L and 83.122 µmol/L
- UCP1 (western blotting, Figure 9J) (siIKKϵ -, ISO -): 0.5736 and 0.639 and 0.5661
- cAMP (Figure 9k) (siIKKϵ -, ISO -): 0.1756 pmol/mg protein and 0.1959 pmol/mg protein and 0.2053 pmol/mg protein and 0.1755 pmol/mg protein and 0.1805 pmol/mg protein and 0.1893 pmol/mg protein
- IKKϵ (western blotting, Figure 9h) (siIKKϵ+10μM BJ): 0.09311 and 0.1256 and 0.1406
- UCP1 (western blotting, Figure 9i) (siIKKϵ+10μM BJ): 0.4915 and 0.4988 and 0.5593
